Entries after “also recorded” stand apart in the source; their conditions may differ.
Tests used:
[1] = target: NADH-fumarate reductase (Ascaris suum, UniProt P24875); test: NADH-fumarate reductase inhibitory activity, Ascaris suum mitochondrial fraction, NADH absorption at 340 nm; type: biochemical
Experimental: NADH-fumarate reductase inhibitory activity of FT-0554A substance of the present invention is explained as follows.
Muscles of Ascaris suum were homogenized in 120 mM sodium phosphate solution (pH 7.0) and centrifuged at 3000×g for 10 minutes to collect the supernatant solution. The supernatant was further centrifuged at 10000×g for 20 minutes to collect the precipitate. The precipitate was suspended in 120 mM sodium phosphate solution (pH 7.0) to obtain mitochondorial fraction.
After 10 μl of test sample dissolved in 50% dimethyl sulfoxide solution was added into 96 wells microplate, 80 μl of 120 mM sodium phosphate solution (pH 7.0) containing 0.35 mM NADH, 7.2 mM disodium fumarate and 18 mg/ml bovine serum albumin was added thereto, and pre-incubated in the microplate reader ELX808 (Bio-Teck Industries Co.) at 37° C. for 5 minutes. Mithochondrial fraction of Ascaris suum 10 μl (protein content 0.3 mg) was added therein and incubated at 37° C. for 10 minutes. Absorption of NADH at 340 nm was measured every 15 seconds.
As a result of quantitative measurement of NADH-fumarate reductase activity shown by decrease in the slope of absorbancy at 340 nm, 50% inhibition of NADH-fumarate reductase activity were obtained at 0.4 μM of FT-0554A substance. Consequently, FT-0554A substance can be expected to use as drug for treatment or prevention of helminthiasis.

[2] = Solubility in solvent; type: physicochemical

CCC(C)/C=C/C=C(\C)CC(C)/C=C/C=C/C1OC(=O)C(O)C2OC12C (stereo not shown) [FT-0554 substance, reference compound]
NADH-fumarate reductase inhibitory activity (in words) [1]: had NADH-fumarate reductase inhibitory activity

CCC(C)/C=C/C=C(\C)CC(C)/C=C/C=C/C(O)C1(C)C=C(O)C(=O)O1 (stereo not shown) [FT-0554A substance]
NADH-fumarate reductase inhibitory activity (in words) [1]: equivalent level of inhibitory activity | Solubility in solvent ([2]; chloroform and ethyl acetate): soluble | Solubility in solvent ([2]; water and n-hexane): insoluble; also recorded: hardly soluble
